According to paper PMC9551036, “A selective and orally bioavailable VHL-recruiting PROTAC achieves SMARCA2 degradation in vivo” (Nature Communications, 2022):
Values joined by “and” are separate entries in the source; they are usually repeats but may differ in a detail not shown here. Equal entries are not always repeated. “Also recorded” adds a separate entry of the source.

Columns and labels:
PBRM1 = target: T1, PBRM1 (Homo sapiens, UniProt Q86U86); assay: Western blot of PBRM1 degradation in NCI-H1568 cells; type: cell-based; conditions: SuppFig3b, per replicate
T1 construct: endogenous in cells; host or cells: NCI-H1568
T1 sequence (Q86U86 whole entry): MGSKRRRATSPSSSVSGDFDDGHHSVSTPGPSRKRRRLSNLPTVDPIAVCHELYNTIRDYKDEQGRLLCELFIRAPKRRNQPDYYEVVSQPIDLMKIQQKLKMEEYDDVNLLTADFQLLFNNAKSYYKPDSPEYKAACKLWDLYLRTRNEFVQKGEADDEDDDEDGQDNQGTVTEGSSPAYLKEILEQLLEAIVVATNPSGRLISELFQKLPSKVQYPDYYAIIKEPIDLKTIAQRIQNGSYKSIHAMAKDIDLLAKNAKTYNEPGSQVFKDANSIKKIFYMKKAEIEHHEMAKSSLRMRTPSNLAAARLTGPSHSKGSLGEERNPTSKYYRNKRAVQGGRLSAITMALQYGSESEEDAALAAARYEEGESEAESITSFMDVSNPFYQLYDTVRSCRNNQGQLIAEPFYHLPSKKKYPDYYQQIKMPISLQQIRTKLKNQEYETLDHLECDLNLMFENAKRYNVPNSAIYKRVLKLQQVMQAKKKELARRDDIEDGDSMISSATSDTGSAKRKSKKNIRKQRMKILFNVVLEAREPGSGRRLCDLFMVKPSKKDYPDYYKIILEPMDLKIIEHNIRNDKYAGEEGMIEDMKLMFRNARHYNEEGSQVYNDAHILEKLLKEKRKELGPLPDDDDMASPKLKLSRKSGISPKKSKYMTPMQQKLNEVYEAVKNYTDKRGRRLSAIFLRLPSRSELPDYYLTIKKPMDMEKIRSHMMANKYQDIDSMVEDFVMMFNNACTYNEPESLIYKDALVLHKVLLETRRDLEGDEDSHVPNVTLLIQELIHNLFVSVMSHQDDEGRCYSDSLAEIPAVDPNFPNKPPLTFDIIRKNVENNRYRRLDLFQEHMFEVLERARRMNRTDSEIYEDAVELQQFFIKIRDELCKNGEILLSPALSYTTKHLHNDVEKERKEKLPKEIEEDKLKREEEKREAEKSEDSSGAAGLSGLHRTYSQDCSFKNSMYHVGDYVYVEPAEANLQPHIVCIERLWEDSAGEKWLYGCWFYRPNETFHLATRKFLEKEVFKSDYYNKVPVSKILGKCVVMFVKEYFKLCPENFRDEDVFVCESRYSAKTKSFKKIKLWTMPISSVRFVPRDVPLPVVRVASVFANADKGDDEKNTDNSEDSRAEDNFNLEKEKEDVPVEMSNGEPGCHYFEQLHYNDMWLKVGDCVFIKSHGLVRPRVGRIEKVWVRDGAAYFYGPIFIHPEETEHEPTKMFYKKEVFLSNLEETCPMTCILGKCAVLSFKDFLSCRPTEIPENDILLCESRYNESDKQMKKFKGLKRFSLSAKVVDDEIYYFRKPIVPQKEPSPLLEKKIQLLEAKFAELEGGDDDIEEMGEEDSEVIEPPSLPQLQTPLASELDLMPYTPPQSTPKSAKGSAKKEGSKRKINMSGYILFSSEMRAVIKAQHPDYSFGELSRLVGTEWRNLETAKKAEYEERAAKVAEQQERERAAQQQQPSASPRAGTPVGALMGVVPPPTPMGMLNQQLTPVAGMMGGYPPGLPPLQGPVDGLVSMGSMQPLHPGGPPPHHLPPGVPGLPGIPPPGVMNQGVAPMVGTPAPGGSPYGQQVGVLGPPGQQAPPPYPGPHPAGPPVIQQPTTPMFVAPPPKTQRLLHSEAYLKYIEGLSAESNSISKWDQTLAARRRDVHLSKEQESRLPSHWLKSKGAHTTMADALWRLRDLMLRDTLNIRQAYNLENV
Protocol: Cells were seeded into 6-well plates 24 h before treatment. Next day, several wells were treated with compounds or DMSO as indicated, washed with PBS and lysed with lysis buffer (1% Triton X-100, 150 mM NaCl, 1 mM EDTA, 50 mM Tris pH 7.4, protease inhibitor cocktail (Roche), 50 units/mL benzonase nuclease (Sigma)). Lysates were cleared by centrifugation at 4 °C, at 15,800 × g for 10 min and the supernatants stored at −20 °C. Protein concentration was determined by BCA assay (Pierce) and the absorbance at 562 nm measured by spectrophotometry (NanoDrop ND1000). […] Western blot images were obtained through detection of SMARCA2 (Sigma #HPA029981 RRID:AB_10602406 1:1000), SMARCA4 (Abcam #ab108318 clone EPR3912 RRID:AB_10889900 1:1000), PBRM1 (Bethyl Laboratories #A301-591A RRID:AB_1078808 1:1000), β-actin (Cell Signalling #4970 clone 13E5 RRID:AB_2223172 1:2500) and GAPDH (Abcam #ab9485 RRID:AB_307275 1:2500) antibodies with IRDye 800CW donkey anti-rabbit secondary antibody (LI-COR #926-32213 RRID:AB_621848 1:10000) using a ChemiDoc MP imaging system (Bio-Rad). Western blots were quantified using Image Studio Lite (Licor, version 5.2) with normalisation to loading control and DMSO and further analysed using GraphPad Prism (version 9.2.0).

SMARCA2 = SMARCA2 (Homo sapiens, UniProt P51531); assay: SMARCA2 IHC in A549 xenograft tumours; type: in vivo, mouse; design: from tissue; host or cells: subcutaneous NCI-H1568 or A549 xenograft tumours in BomTac:NMRI-Foxn1nu mice
Sequence of SMARCA2 (P51531 whole entry): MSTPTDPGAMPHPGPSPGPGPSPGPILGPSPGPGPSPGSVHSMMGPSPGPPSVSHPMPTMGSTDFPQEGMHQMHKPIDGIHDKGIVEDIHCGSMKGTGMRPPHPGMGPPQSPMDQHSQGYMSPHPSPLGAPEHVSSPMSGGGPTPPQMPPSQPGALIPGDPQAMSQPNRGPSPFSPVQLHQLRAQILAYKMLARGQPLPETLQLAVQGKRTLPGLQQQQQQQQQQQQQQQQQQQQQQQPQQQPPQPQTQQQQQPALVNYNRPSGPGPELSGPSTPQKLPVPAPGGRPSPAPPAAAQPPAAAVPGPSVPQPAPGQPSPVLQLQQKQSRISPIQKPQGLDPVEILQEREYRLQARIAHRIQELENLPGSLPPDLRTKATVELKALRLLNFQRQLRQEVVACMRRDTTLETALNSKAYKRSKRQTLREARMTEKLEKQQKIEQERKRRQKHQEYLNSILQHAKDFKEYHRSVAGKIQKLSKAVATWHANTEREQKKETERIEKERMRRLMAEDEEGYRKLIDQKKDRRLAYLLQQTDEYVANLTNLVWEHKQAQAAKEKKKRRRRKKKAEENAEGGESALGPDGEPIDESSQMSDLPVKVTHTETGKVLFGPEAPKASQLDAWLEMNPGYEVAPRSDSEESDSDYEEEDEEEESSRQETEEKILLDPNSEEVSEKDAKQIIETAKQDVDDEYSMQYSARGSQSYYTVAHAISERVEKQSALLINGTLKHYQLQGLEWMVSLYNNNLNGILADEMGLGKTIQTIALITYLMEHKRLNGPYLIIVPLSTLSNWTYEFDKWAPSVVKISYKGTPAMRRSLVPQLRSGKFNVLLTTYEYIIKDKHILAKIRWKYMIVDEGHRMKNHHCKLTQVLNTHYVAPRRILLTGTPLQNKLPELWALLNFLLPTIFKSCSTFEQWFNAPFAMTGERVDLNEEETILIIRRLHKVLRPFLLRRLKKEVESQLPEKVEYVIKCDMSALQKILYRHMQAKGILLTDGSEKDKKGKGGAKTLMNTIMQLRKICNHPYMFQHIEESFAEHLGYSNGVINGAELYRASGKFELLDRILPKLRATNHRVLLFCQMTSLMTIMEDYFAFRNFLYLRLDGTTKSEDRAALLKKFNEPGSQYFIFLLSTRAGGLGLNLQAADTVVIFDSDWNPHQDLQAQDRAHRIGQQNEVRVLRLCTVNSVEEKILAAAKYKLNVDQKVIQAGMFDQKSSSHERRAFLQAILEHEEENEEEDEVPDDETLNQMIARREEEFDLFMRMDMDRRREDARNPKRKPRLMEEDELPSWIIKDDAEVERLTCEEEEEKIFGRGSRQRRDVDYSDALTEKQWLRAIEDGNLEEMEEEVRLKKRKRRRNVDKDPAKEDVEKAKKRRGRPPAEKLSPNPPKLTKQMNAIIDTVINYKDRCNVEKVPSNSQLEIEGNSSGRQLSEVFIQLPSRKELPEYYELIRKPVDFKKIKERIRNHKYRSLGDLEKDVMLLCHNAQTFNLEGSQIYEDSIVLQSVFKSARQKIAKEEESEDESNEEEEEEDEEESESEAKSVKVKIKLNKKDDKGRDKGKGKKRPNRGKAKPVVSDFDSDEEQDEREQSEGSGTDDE
Protocol: To establish subcutaneous tumours, mice were injected with 5 × 10^6 NCI-H1568 in PBS with 5% FCS or with 1 × 10^7 A549 cells in PBS with 5% FCS. Tumour diameters were measured with a caliper three times a week. The volume of each tumour (in mm^3) was calculated according to the formula [tumour volume = length × diameter^2 × π/6]. To monitor side effects of treatment, mice were inspected daily for abnormalities and body weight was determined daily after the start of treatment. Animals were sacrificed when the tumours reached a size of 1500 mm^3. Mice were randomised into treatment groups when the average tumour size reached ~210–220 mm^3. Group sizes were calculated individually for each tumour model based on tumour growth during model establishment experiments. A power analysis was performed using a sample size calculator (https://www.stat.ubc.ca/~rollin/stats/ssize/n2.html). For both models used in the study, 10 mice per group were used for each experiment. All administrations were dosed with 10 ml/kg (s.c. and oral). Control mice were dosed subcutaneously with 10% HP-β-CD in 50% Ringer solution and orally with 15% HP-β-CD, that means the control mouse treatment was corresponding to the solvent of the compounds. Compound 6 was dosed subcutaneously either in a d1-4 q3d, d6-8 q2d, d11-13 q2d treatment (Treatment 1) or a q3 or 4d treatment (Treatment 2).
Xenograft samples were fixed in 10% formaldehyde for 24 h and later moved to ethanol and embedded in paraffin. 2 µm-thick sections were cut using a microtome, then placed on glass slides ([…], silan printer slides PR-S:001), and subsequently dewaxed. […] All slides were reviewed and evaluated for quality by a board-certified MD specialist in Anatomic Pathology (PC). […] A positivity threshold for DAB OD was determined by normalisation with respect to the DAB OD as calculated from bona fide negative tissue (e.g. murine stroma as background). The average, background-normalised DAB OD of tumour cell nuclei was used to quantitate SMARCA2 expression in each xenograft sample.

Cc1ncsc1-c1ccc(C(CCC(C)CCN2CCC(c3ccc4c(c3)n(C3CCCC3)c3nc(=O)c5c(Br)cccc5n43)CC2)NC(=O)C2CC(O)CN2C(=O)C(NC(=O)C2(F)CC2)C(C)(C)C)cc1 (stereo not shown) [ACBI2]
PBRM1 degradation, % DMSO (PBRM1; 1 nM): 23.1362 % DMSO and 79.6814 % DMSO and 32.6932 % DMSO | PBRM1 degradation, % DMSO (PBRM1; 10 nM): 3.304 % DMSO and 17.3996 % DMSO and 0.6905 % DMSO | PBRM1 degradation, % DMSO (PBRM1; 100 nM): 2.804 % DMSO and 11.7415 % DMSO and 30.9172 % DMSO | PBRM1 degradation, % DMSO (PBRM1; 1000 nM): 14.3896 % DMSO and 34.4025 % DMSO and 4.024 % DMSO | SMARCA2 staining in tumours at the end of the efficacy study (SMARCA2; A549 xenograft, 80 mg/kg p.o. once daily, 80 mg/kg): reduced to background levels; also recorded: decreased to background levels | SMARCA2 (OD, normalised) (SMARCA2; Fig4h, 80 mg/kg po qd, background OD 0.05910 subtracted): 0.00000 | Avg Stain 1 Nuclear OD (SMARCA2; Fig4h, 80 mg/kg po qd, per animal): 0.04104 and 0.05262 and 0.08316 and 0.0589 and 0.03791 and 0.04411
